Experimental data as given in publication PMC11637875, “Discovery of novel PARP1/NRP1 dual-targeting inhibitors with strong antitumor potency” (Frontiers in Pharmacology, 2024).
Read-outs that look alike come from different tables or passages of the source.

Legend:
MDA-MB-231 cells = assay: In vitro antiproliferation assay (MTT); assay type: cell-based; details: Homo sapiens
Protocol: Cell viability was measured by MTT assays. […] Afterward, the medium was removed. MTT (5 mg/mL) was dissolved in phosphate-buffered saline (PBS) and filter-sterilized, and then, 20 μL of the prepared MTT solution was added to each well, and the cells were incubated for another 4 h until a purple precipitate was visible. The supernatant was removed by centrifugation, and DMSO (150 μL/well) was added to dissolve the insoluble crystals. The absorbance was determined using an enzyme-linked immunosorbent assay reader at a test wavelength of 570 nm. The assays were performed three times in a parallel manner. The non-linear regression was used to plot a Dose-Response-Inhibition to determine the value of the IC50. […] The data were analyzed using GraphPad Prism 9 software.

[1] = tested on: MDA-MB-231 xenograft tumor; assay: In vivo antitumor assay; parameters: species or system BALB/c nude mice; details: 5 mg/kg intraperitoneally every 3 days, n = 6
Protocol: Twenty-four female BALB/c nude mice (body weight 16–20 g) at 4–6 weeks old were purchased from Changzhou Cavens Experimental Animal Limited Company (Changzhou, China). Mice were adaptively housed for 1 week in a specific pathogen-free (SPF) environment with a temperature of 25°C ± 2°C, a 12-hour light/dark cycle, and free access to food and water. MDA-MB-231 breast cancer cells (200 μL, 1×10^7 cells) were suspended in PBS to formulate cell suspension, and 0.1 mL of cells were injected into the axilla of the left forelimb of mice by subcutaneous injection. […] Equal concentrations of drug-free PBS buffer were used for the vehicle group. Each group was administered every 3 days and the body weight and tumor size of the mice were recorded. Mice were executed when the tumor volume approached 2000 mm^3. Tumor volumes of all mice were measured using vernier calipers. The mice were placed belly up and the longest diameter of the tumor was measured with the inner bayonet of a vernier caliper, and the shortest transverse diameter perpendicular to the diameter was measured with the inner bayonet of a vernier caliper and recorded. Tumor volume was estimated according to the following formula: (c × c × d)/2 (c, the smallest diameter; d, the largest diameter). All animal experiments were performed and approved by the Ethics Committee of China Pharmaceutical University.

PARP1 [2] = molecular target: T1, PARP1 (Homo sapiens, UniProt P09874); assay: In vitro PARP1 inhibition assay (chemiluminescence); assay type: biochemical; details: PARP1 enzyme 0.6 units/well
T1 construct: purchased Abcam
Protocol: In each well, 50 μL of 1 × PARP1 buffer was added and incubated for 30 min at room temperature. The 1 × PARP1 buffer was removed from the wells, and then 25 μL of 1 × PARP1 cocktail was added to each well along with varying doses of compounds and PARP1 enzyme (0.6 units/well). Incubated and washed twice with PBS and 0.1% Triton X-100. Then added 50 μL Strep-HRP and washed twice. Equal volumes (100 μL) of PeroxyGlow A and B were added to each well and immediately take chemiluminescent readings. Data were analyzed by GraphPad Prism 9 software based on chemiluminescence readings of chemiluminescent substrates of Strep-HRP in each well. The IC50 value was were calculated by nonlinear curve fitting in GraphPad Prism 9.

NRP1 [3] = molecular target: T2, NRP1 (Homo sapiens, UniProt O14786); assay: Microscale thermophoresis (MST) assay; assay type: binding; details: labeled protein 50 nM; for Kd: read-out: NRP1 (K d)
T2 construct: purchased Abcam
T2 sequence (O14786 22-644 isoform O14786-2 limits assumed): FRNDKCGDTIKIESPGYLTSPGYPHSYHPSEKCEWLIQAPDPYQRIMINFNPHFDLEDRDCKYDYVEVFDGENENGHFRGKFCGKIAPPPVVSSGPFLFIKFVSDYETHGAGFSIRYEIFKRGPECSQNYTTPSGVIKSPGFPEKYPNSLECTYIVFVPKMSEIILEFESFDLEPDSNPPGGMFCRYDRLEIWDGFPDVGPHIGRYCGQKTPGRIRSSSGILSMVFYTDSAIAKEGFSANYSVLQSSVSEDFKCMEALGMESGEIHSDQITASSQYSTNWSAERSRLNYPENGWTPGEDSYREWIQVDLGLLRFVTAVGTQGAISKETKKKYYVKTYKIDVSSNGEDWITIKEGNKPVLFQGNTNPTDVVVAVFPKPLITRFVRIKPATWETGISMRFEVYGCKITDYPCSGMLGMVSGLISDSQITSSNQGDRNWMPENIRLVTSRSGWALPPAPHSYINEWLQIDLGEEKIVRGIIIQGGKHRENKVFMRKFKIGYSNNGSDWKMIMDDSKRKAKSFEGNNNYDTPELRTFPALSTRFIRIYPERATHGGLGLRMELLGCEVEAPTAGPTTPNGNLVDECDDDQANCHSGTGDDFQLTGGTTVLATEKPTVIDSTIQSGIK
Protocol: (§1) All samples were diluted in 1 × PBST. […] Affinity Analysis software.

PARP1 [4] = molecular target: T1, PARP1; assay: Microscale thermophoresis (MST) assay; assay type: binding; details: labeled protein 50 nM; for Kd: read-out: PARP1 (K d)
Protocol: as §1

NRP1 [5] = molecular target: T3, NRP1 (Homo sapiens, UniProt O14786); assay: In vitro NRP1 inhibition assay (125I-VEGF-A binding displacement, NRP1-transfected HUVEC cells); details: 125I-VEGF-A165 binding competition, 2 h, 4°C
T3 construct: expressed in transfected cells; host or cells: HUVEC, adenovirus NRP1
Protocol: The method was performed as described previously ([Jarvis et al., 2010]). Radiolabeled binding displacement experiments were performed as described previously ([Jia et al., 2006]). Confluent adenovirus NRP1-transfected HUVEC cells in 96-well plates were washed twice with PBS. At 4°C various concentrations of compounds diluted in binding medium (Dulbecco’s modified Eagle’s medium, 25 mM HEPES, pH 7.3, containing 0.1% BSA) were added, followed by addition of the indicated concentration of ^125I-VEGF-A (1,200–1800 Ci/mmol, GE Healthcare, United Kingdom). After 2 h of incubation at 4°C, the medium was aspirated, and washed four times with cold phosphate-buffered saline. The cells were lysed with 0.25 M NaOH, 0.5% SDS solution, and the bound radioactivity of the lysates was measured. IC50 values were calculated from the competition curves of the compounds in the ^125I-VEGF-A165 binding assay using GraphPad Prism 9 software. Using log(inhibitors) vs response-Variable slope equation in the GraphPad Prism 9 to fit the curves. The equation was as follows: (Top and Bottom are the responses, respectively, at the top and bottom of the curve, Y is the inhibitory response at a given compound concentration X, and the Hillslope describes the steepness of the curve.) Y=Bottom+Top−Bottom/1+10^logIC50−xHillslope
T3 sequence (O14786 22-923): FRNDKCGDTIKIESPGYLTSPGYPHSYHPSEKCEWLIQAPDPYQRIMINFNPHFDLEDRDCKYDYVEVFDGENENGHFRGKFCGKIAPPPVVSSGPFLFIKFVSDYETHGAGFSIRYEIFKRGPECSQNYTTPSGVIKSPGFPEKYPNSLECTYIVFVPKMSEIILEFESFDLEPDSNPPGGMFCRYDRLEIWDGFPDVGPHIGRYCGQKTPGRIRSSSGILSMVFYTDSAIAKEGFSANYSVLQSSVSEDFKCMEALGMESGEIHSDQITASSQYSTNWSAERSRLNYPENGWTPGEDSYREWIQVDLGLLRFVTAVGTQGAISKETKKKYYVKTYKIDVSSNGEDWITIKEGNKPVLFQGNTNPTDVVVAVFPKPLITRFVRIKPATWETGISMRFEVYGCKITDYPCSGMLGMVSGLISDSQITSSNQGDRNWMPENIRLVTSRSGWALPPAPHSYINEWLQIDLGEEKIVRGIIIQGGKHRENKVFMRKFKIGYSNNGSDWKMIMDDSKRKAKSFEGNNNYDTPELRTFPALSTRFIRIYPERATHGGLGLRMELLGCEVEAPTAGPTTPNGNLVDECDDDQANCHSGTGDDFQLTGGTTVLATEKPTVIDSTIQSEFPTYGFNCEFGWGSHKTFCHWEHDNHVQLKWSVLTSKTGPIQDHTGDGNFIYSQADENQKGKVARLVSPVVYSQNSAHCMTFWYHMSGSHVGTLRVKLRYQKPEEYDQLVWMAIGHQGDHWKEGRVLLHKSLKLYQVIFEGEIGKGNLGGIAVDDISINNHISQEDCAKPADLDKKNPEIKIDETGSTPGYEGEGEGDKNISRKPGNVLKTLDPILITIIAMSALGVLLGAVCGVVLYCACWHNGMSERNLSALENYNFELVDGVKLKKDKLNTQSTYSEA

[6] = 168 h, MDA-MB-231, concentration needed to reduce cell growth by 50% following 7 days cell treatment, read-out: IC50

T1 sequence (P09874 whole entry): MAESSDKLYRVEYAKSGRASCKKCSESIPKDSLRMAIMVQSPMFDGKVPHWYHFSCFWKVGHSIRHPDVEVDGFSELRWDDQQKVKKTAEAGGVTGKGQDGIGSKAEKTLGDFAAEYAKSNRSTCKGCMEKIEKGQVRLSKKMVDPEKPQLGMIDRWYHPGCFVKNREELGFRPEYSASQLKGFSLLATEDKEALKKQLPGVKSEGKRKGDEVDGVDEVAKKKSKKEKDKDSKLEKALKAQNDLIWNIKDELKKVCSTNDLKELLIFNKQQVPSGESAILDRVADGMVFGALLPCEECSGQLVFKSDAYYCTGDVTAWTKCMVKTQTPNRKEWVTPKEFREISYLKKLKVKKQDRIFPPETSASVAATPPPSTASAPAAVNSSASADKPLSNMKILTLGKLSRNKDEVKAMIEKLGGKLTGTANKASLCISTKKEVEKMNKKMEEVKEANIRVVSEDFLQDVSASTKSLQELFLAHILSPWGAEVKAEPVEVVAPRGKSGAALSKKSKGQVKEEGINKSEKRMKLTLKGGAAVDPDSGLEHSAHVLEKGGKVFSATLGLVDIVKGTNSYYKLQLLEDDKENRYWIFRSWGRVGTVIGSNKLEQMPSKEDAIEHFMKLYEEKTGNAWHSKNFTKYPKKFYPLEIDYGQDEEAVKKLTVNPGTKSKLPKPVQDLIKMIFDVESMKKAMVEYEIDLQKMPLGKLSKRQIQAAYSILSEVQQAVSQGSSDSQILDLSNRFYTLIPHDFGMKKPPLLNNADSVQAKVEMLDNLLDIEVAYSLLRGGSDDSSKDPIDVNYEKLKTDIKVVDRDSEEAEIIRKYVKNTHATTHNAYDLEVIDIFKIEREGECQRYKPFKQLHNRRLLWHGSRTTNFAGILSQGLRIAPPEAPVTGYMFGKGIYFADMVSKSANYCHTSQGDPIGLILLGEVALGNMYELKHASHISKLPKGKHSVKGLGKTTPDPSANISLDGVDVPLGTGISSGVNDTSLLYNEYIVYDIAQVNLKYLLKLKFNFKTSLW

IC50 (MDA-MB-231 cells; [6]) | PARP1 (IC50, nM) (PARP1 [2]) | Kd (NRP1 [3]) | PARP1 (K d, nM) (PARP1 [4]) | IC50 (NRP1 [5]) | IC50 (MDA-MB-231 cells; MDA-MB-231, 168 h) | NRP1 (K d, nM) (NRP1 [3]) | NRP1 (IC50, nM) (NRP1 [5]) | IC50 (PARP1 [2]) | Kd (PARP1 [4]) | SMILES | body weight (g) in mice, mean ([1]; day 0) | tumor volume (mm^3), mean ([1]; day 0) | body weight (g) in mice, mean ([1]; day 3) | tumor volume (mm^3), mean ([1]; day 3) | body weight (g) in mice, mean ([1]; day 6) | tumor volume (mm^3), mean ([1]; day 6) | body weight (g) in mice, mean ([1]; day 9) | tumor volume (mm^3), mean ([1]; day 9) | body weight (g) in mice, mean ([1]; day 12) | tumor volume (mm^3), mean ([1]; day 12)
62400 nM | No inhibition | 519 nM | no binding | 640 ± 34.7 nM |  |  |  |  |  | NC(N)=NCCC[C@H](NC(=O)c1sccc1NS(=O)(=O)c1cccc2nsnc12)C(=O)O [EG00229] | 18.38 g | 101 mm^3 | 18.51 g | 275 mm^3 | 18.84 g | 502 mm^3 | 19.19 g | 976 mm^3 | 19.52 g | 1352 mm^3
 |  |  |  |  | 960 nM | no binding | No inhibition |  |  | O=C(c1cc(Cc2n[nH]c(=O)c3ccccc23)ccc1F)N1CCN(C(=O)C2CC2)CC1 [Olaparib, olaparib] | 18.29 g | 103 mm^3 | 18.55 g | 245 mm^3 | 19.12 g | 329 mm^3 | 19.37 g | 513 mm^3 | 19.59 g | 733 mm^3
890 nM |  | 91.5 nM |  | 94.1 ± 4.24 nM |  |  |  | 70.3 ± 3.13 nM | 75.1 nM | NC(N)=NCCC[C@H](NCNCCNC(=O)c1cc(Cc2n[nH]c(=O)c3ccccc23)ccc1F)C(=O)O [PPNR-1] |  |  |  |  |  |  |  |  |  | 
560 nM |  | 31 nM |  | 31.2 ± 3.95 nM |  |  |  | 29.3 ± 2.57 nM | 28.4 nM | NC(N)=NCCC[C@H](NCN1CCCN(C(=O)c2cc(Cc3n[nH]c(=O)c4ccccc34)ccc2F)C1)C(=O)O [PPNR-2] |  |  |  |  |  |  |  |  |  | 
830 nM |  | 71.3 nM |  | 72.9 ± 3.41 nM |  |  |  | 63.2 ± 4.02 nM | 61.1 nM | NC(N)=NCCC[C@H](NC/C=C/CNC(=O)c1cc(Cc2n[nH]c(=O)c3ccccc23)ccc1F)C(=O)O [PPNR-3] |  |  |  |  |  |  |  |  |  | 
720 nM |  | 55.3 nM |  | 57.1 ± 3.27 nM |  |  |  | 41.4 ± 2.86 nM | 40 nM | CN(CCNC(=O)c1cc(Cc2n[nH]c(=O)c3ccccc23)ccc1F)CN[C@@H](CCCN=C(N)N)C(=O)O [PPNR-5] |  |  |  |  |  |  |  |  |  | 
